The NIST ThermoML archive (doi:10.1021/je400082c)
Numbers after ± are expanded uncertainties.

Details: Liquid

With `CC(O)CCO` (centres undefined) [1,3-butanediol] as the molecule, how does the “vapor or sublimation pressure” value (387.75 K) read?
Its value is 2.43 ± 0.08 kPa.

What about the “vapor or sublimation pressure” value (395.13 K) of the same molecule?
Its value is 3.6 ± 0.08 kPa.

What about the “vapor or sublimation pressure” value (402.05 K) of the same molecule?
The value was 5.03 ± 0.08 kPa.

And the “vapor or sublimation pressure” value (406.61 K)?
The value was 6.26 ± 0.09 kPa.

And the “vapor or sublimation pressure” value (411.11 K)?
Its value is 7.72 ± 0.09 kPa.

And the “vapor or sublimation pressure” value (413.41 K)?
Its value is 8.54 ± 0.09 kPa.

And the “vapor or sublimation pressure” value (416.91 K)?
The value was 10 ± 0.095 kPa.

And the “vapor or sublimation pressure” value (418.03 K)?
The value was 10.48 ± 0.09 kPa.

And the “vapor or sublimation pressure” value (420.85 K)?
The value was 11.87 ± 0.09 kPa.

And the “vapor or sublimation pressure” value (422.04 K)?
The value was 12.54 ± 0.09 kPa.

And the “vapor or sublimation pressure” value (425.8 K)?
Its value is 14.63 ± 0.09 kPa.

And the “vapor or sublimation pressure” value (427.74 K)?
The value was 15.84 ± 0.09 kPa.

And the “vapor or sublimation pressure” value (429.75 K)?
Its value is 17.09 ± 0.09 kPa.

And the “vapor or sublimation pressure” value (433.71 K)?
Its value is 19.96 ± 0.09 kPa.

What about the “vapor or sublimation pressure” value (436.29 K) of the same molecule?
Its value is 22.24 ± 0.1 kPa.

What about the “vapor or sublimation pressure” value (439.65 K) of the same molecule?
Its value is 25.3 ± 0.1 kPa.

And the “vapor or sublimation pressure” value (442.45 K)?
Its value is 28.15 ± 0.1 kPa.

And the “vapor or sublimation pressure” value (444.75 K)?
Its value is 30.78 ± 0.1 kPa.

And the “vapor or sublimation pressure” value (447.01 K)?
Its value is 33.36 ± 0.1 kPa.

And the “vapor or sublimation pressure” value (449.8 K)?
Its value is 36.78 ± 0.11 kPa.

What about the “vapor or sublimation pressure” value (451.7 K) of the same molecule?
The value was 39.45 ± 0.11 kPa.

What about the “vapor or sublimation pressure” value (453.1 K) of the same molecule?
The value was 41.39 ± 0.11 kPa.

With `CC(O)CO` (centres undefined) [1,2-propanediol] as the molecule, how does the “vapor or sublimation pressure” value (398.23 K, Ebulliometric method (Recirculating still)) read?
Its value is 10 ± 0.095 kPa.

For `CCC(O)CO` (centres undefined) [1,2-butanediol], which “vapor or sublimation pressure” value (372.06 K) is on record?
The value was 1.89 ± 0.08 kPa.

What about the “vapor or sublimation pressure” value (382.61 K) of the same molecule?
Its value is 3.33 ± 0.08 kPa.

What about the “vapor or sublimation pressure” value (390.52 K) of the same molecule?
The value was 4.96 ± 0.09 kPa.

And the “vapor or sublimation pressure” value (395.55 K)?
The value was 6.36 ± 0.09 kPa.

What about the “vapor or sublimation pressure” value (399.56 K) of the same molecule?
Its value is 7.66 ± 0.09 kPa.

What about the “vapor or sublimation pressure” value (402.61 K) of the same molecule?
Its value is 8.81 ± 0.09 kPa.

And the “vapor or sublimation pressure” value (405.13 K)?
Its value is 9.9 ± 0.09 kPa.

What about the “vapor or sublimation pressure” value (405.42 K) of the same molecule?
The value was 10 ± 0.1 kPa.

And the “vapor or sublimation pressure” value (408.5 K)?
Its value is 11.39 ± 0.09 kPa.

And the “vapor or sublimation pressure” value (413.34 K)?
The value was 14.09 ± 0.09 kPa.

And the “vapor or sublimation pressure” value (418.29 K)?
Its value is 17.27 ± 0.1 kPa.

What about the “vapor or sublimation pressure” value (421.49 K) of the same molecule?
Its value is 19.63 ± 0.1 kPa.

And the “vapor or sublimation pressure” value (424.91 K)?
The value was 22.54 ± 0.1 kPa.

What about the “vapor or sublimation pressure” value (427.57 K) of the same molecule?
Its value is 25.06 ± 0.11 kPa.

What about the “vapor or sublimation pressure” value (429.92 K) of the same molecule?
Its value is 27.24 ± 0.11 kPa.

And the “vapor or sublimation pressure” value (432.76 K)?
The value was 30.39 ± 0.12 kPa.

And the “vapor or sublimation pressure” value (435.37 K)?
Its value is 33.36 ± 0.12 kPa.

And the “vapor or sublimation pressure” value (438.52 K)?
Its value is 37.3 ± 0.13 kPa.

And the “vapor or sublimation pressure” value (439.97 K)?
The value was 39.3 ± 0.13 kPa.

What about the “vapor or sublimation pressure” value (441.78 K) of the same molecule?
The value was 41.9 ± 0.13 kPa.

What about the “vapor or sublimation pressure” value (443.55 K) of the same molecule?
The value was 44.75 ± 0.14 kPa.

Which “vapor or sublimation pressure” value (386.15 K) does the source give for `OCCO` [1,2-ethanediol] here?
The value was 3.92 ± 0.08 kPa.

And the “vapor or sublimation pressure” value (389.12 K)?
The value was 4.51 ± 0.08 kPa.

What about the “vapor or sublimation pressure” value (389.95 K) of the same molecule?
Its value is 4.78 ± 0.08 kPa.

And the “vapor or sublimation pressure” value (390.75 K)?
Its value is 4.89 ± 0.08 kPa.

And the “vapor or sublimation pressure” value (395.25 K)?
The value was 6.08 ± 0.09 kPa.

And the “vapor or sublimation pressure” value (400.78 K)?
The value was 7.87 ± 0.09 kPa.

What about the “vapor or sublimation pressure” value (402.15 K) of the same molecule?
Its value is 8.37 ± 0.09 kPa.

What about the “vapor or sublimation pressure” value (405.85 K) of the same molecule?
Its value is 9.85 ± 0.09 kPa.

What about the “vapor or sublimation pressure” value (406.09 K) of the same molecule?
Its value is 10 ± 0.095 kPa.

What about the “vapor or sublimation pressure” value (406.25 K) of the same molecule?
Its value is 10.02 ± 0.09 kPa.

What about the “vapor or sublimation pressure” value (409.3 K) of the same molecule?
The value was 11.42 ± 0.09 kPa.

And the “vapor or sublimation pressure” value (411.15 K)?
The value was 12.41 ± 0.09 kPa.

And the “vapor or sublimation pressure” value (411.85 K)?
The value was 12.85 ± 0.09 kPa.

And the “vapor or sublimation pressure” value (413.85 K)?
Its value is 13.85 ± 0.09 kPa.

What about the “vapor or sublimation pressure” value (416.45 K) of the same molecule?
Its value is 15.37 ± 0.09 kPa.
